# Literature values as cited in patent US20110160244A1, “PHENYL[…] MU-OPIOID RECEPTOR” (AUSPEX PHARMACEUTICALS, INC., priority 2008, published 2011).
# Assays:
# [1] = after oral administration
smiles,measurement,setting,value
"CCOC(=O)C1(c2ccccc2)CCN(C)CC1 [Meperidine, Ethyl 1-methyl-4-phenylpiperidine-4-carboxylate]",time to peak analgesic effect,following oral administration,≤ 2 h
same,time until analgesic effects are detectable,following oral administration,≤ 15 min
same,time for which the drug is effective,statement on dosing interval,2 h
same,fraction escaping first-pass metabolism,[1],about 50%
